Data published in PubChem BioAssay AID1845205 (Molecular Pharmacology Branch, DTP, NCI, 2023).

Tested on: MPNST multicellular tumor spheroids, viability % test/control
Assay: Anticancer human tumor MPNST cell line growth inhibition;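 further: spheroids exposed to agents for seven days after three days of growth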;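 on viability, T/C: luminescence signal used as surrogate for viable cell amount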
Details: for IC50: curve of first compound; for viability, T/C: stronger effect = lower value
Excerpt: Multicellular complex tumor spheroid response to DNA repair inhibitors in combination with DNA-damaging drugs
This study explores the anticancer activities of DNA-damaging drugs and inhibitors of DNA damage repair, both as single agents and in combinations. Complex tumor spheroids comprised of malignant cells, endothelial cells and mesenchymal stem cells served as an in vitro model for human solid tumors. This model system incorporates physiologically relevant features and patient-derived or established malignant cell lines with clinically relevant genetic alterations from many tumor types. Twenty-six patient-derived or established malignant cell lines were evaluated representing sarcoma, melanoma, small cell lung cancer (SCLC), non-small cell lung cancer (NSCLC), as well as bladder, ovarian and pancreatic cancers. The concentration ranges selected for each drug and investigational agent were based upon clinically achievable concentrations if the clinical Cmax of the agent was known.
Compounds. The drugs and compounds olaparib (NSC753686), talazoparib (NSC767125), berzosertib (NSC777718), elimusertib (NSC800525), nedisertib (NSC802822), VX-984 (NSC792969), AZD-1390 (NSC803789), temozolomide (NSC362856), topotecan (NSC609699), trabectedin (NSC813783), staurosporine (NSC755774), and gemcitabine (NSC613327) were obtained from the National Cancer Institute (NCI) Developmental Therapeutics Program Chemical Repository. The FDA-approved anticancer drug set is available from the Developmental Therapeutics Program at https://dtp.cancer.gov/organization/dscb/obtaining/available_plates.htm. […] The stock solutions were prepared in dimethyl sulfoxide (DMSO, Sigma-Aldrich, St. Louis, MO, cat. D2650) at 400-fold the tested concentration and stored at -70 degrees C. Prior to their use, the stock solutions were diluted in fresh medium and the final DMSO concentration in the assay was 0.25% (v/v). All drugs and investigational agents were tested over a range starting from a high concentration at or near the clinical Cmax and decreasing in half-log increments. If the clinical Cmax for an agent had not been determined, the highest concentration tested was 10 microM.
Cell Lines. The patient-derived cancer cell (PDC) lines: 156681-154-R-J1-PDC, 283228-195-R-J1-PDC, 287954-098-R-J1-PDC, 292921-168-R-J2-PDC, 349418-098-R-PDC, 425362-245-T-J1-PDC, 556581-035-R-J1-PDC, and BL0293-F563-PDC were received from the NCI Patient-Derived Models Repository (PDMR, https://pdmr.cancer.gov). The established cell lines HS-SY-2 (RRID:CVCL_8719), MPNST, and SYO-1 (RRID:CVCL_7146) were obtained from the Sloan Kettering Institute. The alveolar soft parts sarcoma cell line ASPS-1 (RRID:CVCL_S738) was established at the NCI and grown from internal seed stocks. The following established cell lines were purchased from the American Type Culture Collection (ATCC, Manassas, VA): G-401 (ATCC, cat. CRL-1441, RRID:CVCL_0270), SW982 (ATCC, cat. HTB-93, RRID:CVCL_1734), VA-ES-BJ (ATCC, cat. CRL-2138, RRID:CVCL_1785), NCI-H719 (ATCC, cat. CRL-5837, RRID:CVCL_1582), NCI-H196 (ATCC, cat. CRL-5823, RRID:CVCL_1509), NCI-H841 (ATCC, cat. CRL-5845, RRID:CVCL_1595), NCI-H1618 (ATCC, cat. CRL-5879, RRID:CVCL_1480), NCI-H1876 (ATCC, cat. CRL-5902, RRID:CVCL_1503), DMS 114 (ATCC, cat. CRL-2066; RRID:CVCL_1174), NCI-H211 (ATCC, cat. CRL-5824; RRID:CVCL_1529), and SW 1271 (ATCC, cat. CRL-2177, RRID:CVCL_1716). The small cell lung cancer cell line COR-L88 was purchased from Sigma-Aldrich (cat. 92031917-1VL, RRID:CVCL_1141). The non-small cell lung cancer cell lines NCI-H226 (RRID:CVCL_1544) and NCI-H322M (RRID:CVCL_1557) were established at the NCI and grown from internal seed stocks. Pooled donor human umbilical vein endothelial cells (HUVEC, Lonza, cat. CC-2519) and human mesenchymal stem cells (hMSC, Lonza, cat. PT-2501) were purchased from Lonza (Walkersville, MD).
Cell Culture. All cells were maintained in an incubator at 37 degrees C and 5% CO2 with 95% humidity. […]

[1] = second compound 0.003 µM, first compound 0.00949 µM
[2] = second compound 0.003 µM, first compound 0.03 µM
[3] = second compound 0.003 µM, first compound 0.0949 µM
[4] = second compound 0.003 µM, first compound 0.3 µM
[5] = second compound 0.003 µM, first compound 0.949 µM
[6] = second compound 0.003 µM, first compound 3 µM
[7] = second compound 0.00949 µM, first compound 0.00949 µM
[8] = second compound 0.00949 µM, first compound 0.03 µM
[9] = second compound 0.00949 µM, first compound 0.0949 µM
[10] = second compound 0.00949 µM, first compound 0.3 µM
[11] = second compound 0.00949 µM, first compound 0.949 µM
[12] = second compound 0.00949 µM, first compound 3 µM
[13] = second compound 0.03 µM, first compound 0.00949 µM
[14] = second compound 0.03 µM, first compound 0.03 µM
[15] = second compound 0.03 µM, first compound 0.0949 µM
[16] = second compound 0.03 µM, first compound 0.3 µM
[17] = second compound 0.03 µM, first compound 0.949 µM
[18] = second compound 0.03 µM, first compound 3 µM
[19] = second compound 0.0949 µM, first compound 0.00949 µM
[20] = second compound 0.0949 µM, first compound 0.03 µM
[21] = second compound 0.0949 µM, first compound 0.0949 µM
[22] = second compound 0.0949 µM, first compound 0.3 µM
[23] = second compound 0.0949 µM, first compound 0.949 µM
[24] = second compound 0.0949 µM, first compound 3 µM
[25] = second compound 0.3 µM, first compound 0.00949 µM
[26] = second compound 0.3 µM, first compound 0.03 µM
[27] = second compound 0.3 µM, first compound 0.0949 µM
[28] = second compound 0.3 µM, first compound 0.3 µM
[29] = second compound 0.3 µM, first compound 0.949 µM
[30] = second compound 0.3 µM, first compound 3 µM

| Structure (SMILES) | IC50 (second compound 0.003 µM) | IC50 (second compound 0.00949 µM) | IC50 (second compound 0.03 µM) | IC50 (second compound 0.0949 µM) | IC50 (second compound 0.3 µM) | viability, T/C [1] | viability, T/C [2] | viability, T/C [3] | viability, T/C [4] | viability, T/C [5] | viability, T/C [6] | viability, T/C [7] | viability, T/C [8] | viability, T/C [9] | viability, T/C [10] | viability, T/C [11] | viability, T/C [12] | viability, T/C [13] | viability, T/C [14] | viability, T/C [15] | further results |
| --- | --- | --- | --- | --- | --- | --- | --- | --- | --- | --- | --- | --- | --- | --- | --- | --- | --- | --- | --- | --- | --- |
| CNCc1ccc(-c2cc(-c3nc(-c4ccc(S(=O)(=O)C(C)C)cc4)cnc3N)on2)cc1 + CC[C@@]1(O)C(=O)OCc2c1cc1n(c2=O)Cc2cc3c(CN(C)C)c(O)ccc3nc2-1 | > 3 µM | > 3 µM | > 3 µM | > 3 µM | < 0.00949 µM | 104% | 99.3% | 71.8% | 61.4% | 64.3% | 61.7% | 75.6% | 74.3% | 59.7% | 58% | 60.3% | 66.6% | 61.9% | 55.1% | 53.8% | viability, T/C [16]: 57.1%; viability, T/C [17]: 63.7%; viability, T/C [18]: 64.9%; viability, T/C [19]: 57.7%; viability, T/C [20]: 54.8%; viability, T/C [21]: 56.8%; viability, T/C [22]: 64.7%; viability, T/C [23]: 58.1%; viability, T/C [24]: 70.7%; viability, T/C [25]: 46.1%; viability, T/C [26]: 45%; viability, T/C [27]: 48.8%; viability, T/C [28]: 50%; viability, T/C [29]: 55.5%; viability, T/C [30]: 52.7% |
| Cc1sc2c(c1C)C(c1ccc(Cl)cc1)=NC(CC(=O)Nc1ccc(O)cc1)c1nnc(C)n1-2 (stereo not given) + CC[C@@]1(O)C(=O)OCc2c1cc1n(c2=O)Cc2cc3c(CN(C)C)c(O)ccc3nc2-1 | 1.86 µM | > 3 µM | 2.5 µM | 1.21 µM | 0.0106 µM | 113% | 98.3% | 85.1% | 66.9% | 51.9% | 48.4% | 82% | 85.7% | 81.8% | 62.4% | 54.5% | 50.5% | 66.8% | 64.1% | 62% | viability, T/C [16]: 58.1%; viability, T/C [17]: 51.9%; viability, T/C [18]: 49.4%; viability, T/C [19]: 58.4%; viability, T/C [20]: 60.1%; viability, T/C [21]: 60.4%; viability, T/C [22]: 56.3%; viability, T/C [23]: 48.8%; viability, T/C [24]: 45.4%; viability, T/C [25]: 50.6%; viability, T/C [26]: 47.8%; viability, T/C [27]: 47.2%; viability, T/C [28]: 44.9%; viability, T/C [29]: 37.9%; viability, T/C [30]: 33.1% |
| Cn1ncnc1[C@H]1c2n[nH]c(=O)c3cc(F)cc(c23)N[C@@H]1c1ccc(F)cc1 + CC[C@@]1(O)C(=O)OCc2c1cc1n(c2=O)Cc2cc3c(CN(C)C)c(O)ccc3nc2-1 | > 3 µM | > 3 µM | > 3 µM | > 3 µM | < 0.00949 µM | 90.6% | 77.2% | 72.3% | 68.7% | 62.2% | 60.1% | 65% | 65.6% | 60.5% | 63.9% | 59.4% | 59.9% | 56.7% | 59% | 61.1% | viability, T/C [16]: 59.7%; viability, T/C [17]: 64%; viability, T/C [18]: 61.1%; viability, T/C [19]: 59.7%; viability, T/C [20]: 55.8%; viability, T/C [21]: 58.8%; viability, T/C [22]: 61.6%; viability, T/C [23]: 59.1%; viability, T/C [24]: 55.6%; viability, T/C [25]: 49.5%; viability, T/C [26]: 48.5%; viability, T/C [27]: 49.2%; viability, T/C [28]: 52.7%; viability, T/C [29]: 53%; viability, T/C [30]: 46.3% |
